Where two headings read alike, the source gives them in different places.
Legend:
[1] = tested on: cortical vessels; assay: In vivo 2-photon imaging of cortical vessel diameter; parameters: species or system mouse
Text: (§1) In vivo imaging experiments. Details of experimental procedures were identical to our previously published protocols (Zheng, et al., 2010). Briefly, mice were anesthetized with volatile isoflurane through a nosecone (3% induction, 1.5% maintenance). The depth of anesthesia was monitored by regular checking of whisker movement and the pinch withdrawal reflex of the hind limb and tail. Also, during surgery and imaging, three main vital signs including heart rate, respiratory rate, and oxygen saturation were periodically assessed by use of the MouseOx system (STARR Life Sciences). Body temperature was maintained at 37° C. by use of feedback-controlled heating pad (Gaymar T/Pump). Initially, the scalp was shaved, incised along the midline and retracted to expose the dorsal skull. Then removal of periosteum by forceps and cleaning of skull by a sterile cotton swab were performed. A stainless steel head plate was glutted (VetBond, 3M, St. Paul, Minn.) to dorsal skull and screwed to a custom-made stereotaxic frame. To create a thin-skull cranial window over the somotosensory cortex, skull was initially thinned by high-speed electric drill (Fine Science Tools, Foster City, Calif.) and subsequently thinned to approximate 50 μm by using a surgical blade under a dissecting microscope (Nikon SMZ800). […] The diameter of blood vessels was analyzed by Image J plugin vessel diameter. […]

[2] = Body weight and food intake during rapamycin feeding; assay type: in vivo, mouse
Method: Rapamycin treatment. Mice were fed chow containing either microencapsulated enteric-coated rapamycin at 2.24 mg/kg or a control diet as described by Harrison et al., 2009. Rapamycin was used at 14 mg per kg food (verified by HPLC). On the assumption that the average mouse weighs 30 gm and consumes 5 gm of food/day, this dose supplied 2.24 mg rapamycin per kg body weight/day (Harrison, et al., 2009). All mice were given ad libitum access to rapamycin or control food and water for the duration of the experiment. Body weights and food intake were measured weekly. […] Littermates (transgenic and non-transgenic mice) were housed together, thus we could not distinguish effects of genotype on food consumption. Even though there were no differences in food consumption, body weights of rapamycin-fed non-transgenic, but not transgenic, females increased moderately during treatment, (6.8% increase for rapamycin-fed vs control-fed non-transgenic females). The higher increase in body weight for non-transgenic animals is not unexpected, since non-transgenic animals of both genders tend to be slightly (1-3 g) heavier than AD transgenic.

[3] = Rapamycin levels in brain regions of AD mice chronically fed rapamycin-supplemented chow; assay type: in vivo; conditions: PDAPP transgenic (AD mice), mouse, oral, 2.24 mg/kg body weight/day, AD mice chronically fed rapamycin chow (2.24 mg/kg/day)
Method: The inventors used magnetic resonance imaging (MRI) arterial spin labeling (ASL) techniques in vivo, as well as other functional imaging, in vivo optical imaging, and behavioral and biochemical tools to determine whether rapamycin treatment affects the progression of established deficits in the transgenic PDAPP mouse model of Alzheimer's Disease (Galvan, et al., 2005; Hsia, et al., 1999; Mucke, et al., 2000) (“AD mice”). AD mice and unaffected littermates were treated with rapamycin after the onset of AD-like impairments at 7 months of age (Galvan, et al., 2005; Hsia, et al., 1999; Mucke, et al., 2000) for a total of 16 weeks. Rapamycin levels in brain regions of AD mice chronically fed with rapamycin ranged from 0.98 to 2.40 pg/mg. Levels in hippocampus were 1.55 pg/mg (see FIG. 5).
Rapamycin treatment. Mice were fed chow containing either microencapsulated enteric-coated rapamycin at 2.24 mg/kg or a control diet as described by Harrison et al., 2009. Rapamycin was used at 14 mg per kg food (verified by HPLC). On the assumption that the average mouse weighs 30 gm and consumes 5 gm of food/day, this dose supplied 2.24 mg rapamycin per kg body weight/day (Harrison, et al., 2009). All mice were given ad libitum access to rapamycin or control food and water for the duration of the experiment. Body weights and food intake were measured weekly. […]

[4] = tested on: AD mice; assay: Cerebral blood flow by MRI continuous arterial spin labeling; assay type: in vivo, mouse; conditions: rapamycin-fed 16 weeks, then L-NAME for 4 additional weeks
Method: Rapamycin treatment. Mice were fed chow containing either microencapsulated enteric-coated rapamycin at 2.24 mg/kg or a control diet as described by Harrison et al., 2009. Rapamycin was used at 14 mg per kg food (verified by HPLC). On the assumption that the average mouse weighs 30 gm and consumes 5 gm of food/day, this dose supplied 2.24 mg rapamycin per kg body weight/day (Harrison, et al., 2009). All mice were given ad libitum access to rapamycin or control food and water for the duration of the experiment. Body weights and food intake were measured weekly. […] Littermates (transgenic and non-transgenic mice) were housed together, thus we could not distinguish effects of genotype on food consumption. […]
Animal Preparation for Functional Neuroimaging. […] Respiration rate (90-130 bpm) and rectal temperature (37±0.5° C.) were continuously monitored. Heart rate and blood oxygen saturation level (SaO2) were recorded using a MouseOx system (STARR Life Science Corp., Oakmont, Pa.) and maintained within normal physiological ranges.
Cerebral Blood Flow. Quantitative CBF (with unit of […]) was measured using the MRI based continuous arterial spin labeling (CASL) techniques (Duong, et al., 2000; Muir, et al., 2008) on a horizontal 7T/30 cm magnet and a 40G/cm BGA12S gradient insert (Bruker, Billerica, Mass.). […]

[5] = tested on: NO production in cortical vessels; assay: In vivo imaging of NO production in cortical vessels with NO-sensitive probe DAF-FM; parameters: species or system mouse; conditions: L-NAME 30 mg/kg intraperitoneally before rapamycin
Text: as §1

concentration at 16 weeks ([3]; hippocampus, read-out: Rapamycin levels in hippocampus)	concentration at 16 weeks ([3]; range over brain regions, read-out: Rapamycin levels in brain regions)	Compound	Increase in diameter of small and medium-sized cortical vessels ([1]; rapamycin 10 mg/kg intraperitoneally, 10 min after administration)	Food consumption ([2]; control- vs rapamycin-fed groups)	Body weight increase, rapamycin-fed vs control-fed ([2]; non-transgenic females, during treatment)	Effect of L-NAME pretreatment on rapamycin-induced vasodilation ([1]; L-NAME 30 mg/kg intraperitoneally before rapamycin)	CBF in rapamycin-fed AD mice injected with L-NAME [4]	Effect of L-NAME pretreatment on rapamycin-induced NO release [5]
1.55 ng/g	0.98 to 2.4 ng/g	CO[C@H]1C[C@@H]2CC[C@@H](C)[C@@](O)(O2)C(=O)C(=O)N2CCCC[C@H]2C(=O)O[C@H]([C@H](C)C[C@@H]2CC[C@@H](O)[C@H](OC)C2)CC(=O)[C@H](C)/C=C(\C)[C@@H](O)[C@@H](OC)C(=O)[C@H](C)C[C@H](C)/C=C/C=C/C=C/1C [rapamycin]	23-35%	comparable	6.8%	–	–	–
–	–	COC(=O)[C@@H](N)CCCNC(=N)N[N+](=O)[O-] [L-NAME, L-NG-Nitroarginine methyl ester]	–	–	–	abrogated	CBF deficits comparable to control-fed AD mice	abrogated

Source: patent US20150290176A1, “USE OF MTOR INHIBITORS TO TREAT VASCULAR COGNITIVE IMPAIRMENT” (THE BOARD OF REGENTS OF THE UNIVERSITY OF TEXAS SYSTEM, priority 2012, published 2015)
